Reference: ChEMBL document CHEMBL1201862, “PubChem BioAssay data set” (2004)
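Grown in 96-well plates, cells were treated for 48 hours with each compound at five concentrations. Insufficient inhibition: endpoint recorded as highest concentration tested. Abbreviation: GI50, concentration required for 50% inhibition of growth.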 Calls of active or inactive are those of the source. Cut-off read from the data, not from the text of the source: active = GI50 up to about 1.1 µM and inactive = higher.

Key:
Test in all cases: DTP human tumour cell line panel, 48 h
NCI/ADR-RES = system: NCI/ADR-RES
NCI-H460 = system: NCI-H460
A498 = system: A498
LOX IMVI = system: LOX IMVI
RXF 393 = system: RXF 393
CCRF-CEM = system: CCRF-CEM
OVCAR-8 = system: OVCAR-8
MDA-MB-435 = system: MDA-MB-435
PC-3 = system: PC-3
HCT-116 = system: HCT-116
OVCAR-4 = system: OVCAR-4
KM12 = system: KM12
786-0 = system: 786-0
SK-MEL-28 = system: SK-MEL-28
A549 = system: A549
HL-60 = system: HL-60
BT-549 = system: BT-549
T47D = system: T47D
SK-MEL-2 = system: SK-MEL-2
MDA-MB-231 = system: MDA-MB-231
HOP-62 = system: HOP-62
SF-268 = system: SF-268
UACC-62 = system: UACC-62
SK-MEL-5 = system: SK-MEL-5
SN12C = system: SN12C
ACHN = system: ACHN
NCI-H226 = system: NCI-H226
UO-31 = system: UO-31
CAKI-1 = system: CAKI-1
HCT-15 = system: HCT-15
RPMI-8226 = system: RPMI-8226
NCI-H23 = system: NCI-H23
COLO 205 = system: COLO 205
OVCAR-5 = system: OVCAR-5
DU-145 = system: DU-145
SNB-19 = system: SNB-19
SW-620 = system: SW-620
K562 = system: K562
HOP-92 = system: HOP-92
Hs-578T = system: Hs-578T
SF-295 = system: SF-295
TK-10 = system: TK-10
IGROV-1 = system: IGROV-1
U-251 = system: U-251
EKVX = system: EKVX
MDA-N = system: MDA-N
SK-OV-3 = system: SK-OV-3
HT-29 = system: HT-29
M14 = system: M14
UACC-257 = system: UACC-257
SF-539 = system: SF-539
NCI-H522 = system: NCI-H522
Malme-3M = system: Malme-3M
OVCAR-3 = system: OVCAR-3
MOLT-4 = system: MOLT-4
SR = system: SR
HCC 2998 = system: HCC 2998
MCF7 = system: MCF7
SNB-75 = system: SNB-75

Structure (SMILES): CNc1nc(C(N)=O)c(N)s1
- GI50 (NCI/ADR-RES): > 100 µM (inactive)
- GI50 (NCI-H460): > 100 µM (inactive)
- GI50 (A498): > 100 µM (inactive)
- GI50 (LOX IMVI): > 100 µM (inactive)
- GI50 (RXF 393): > 100 µM (inactive)
- GI50 (CCRF-CEM): > 100 µM (inactive)
- GI50 (OVCAR-8): > 100 µM (inactive)
- GI50 (MDA-MB-435): > 100 µM (inactive)
- GI50 (PC-3): > 100 µM (inactive)
- GI50 (HCT-116): > 100 µM (inactive)
- GI50 (OVCAR-4): > 100 µM (inactive)
- GI50 (KM12): > 100 µM (inactive)
- GI50 (786-0): > 100 µM (inactive)
- GI50 (SK-MEL-28): > 100 µM (inactive)
- GI50 (A549): > 100 µM (inactive)
- GI50 (HL-60): > 100 µM (inactive)
- GI50 (BT-549): > 100 µM (inactive)
- GI50 (T47D): > 100 µM (inactive)
- GI50 (SK-MEL-2): > 100 µM (inactive)
- GI50 (MDA-MB-231): > 100 µM (inactive)
- GI50 (HOP-62): > 100 µM (inactive)
- GI50 (SF-268): > 100 µM (inactive)
- GI50 (UACC-62): > 100 µM (inactive)
- GI50 (SK-MEL-5): 84.9 µM (inactive)
- GI50 (SN12C): > 100 µM (inactive)
- GI50 (ACHN): > 100 µM (inactive)
- GI50 (NCI-H226): > 100 µM (inactive)
- GI50 (UO-31): > 100 µM (inactive)
- GI50 (CAKI-1): > 100 µM (inactive)
- GI50 (HCT-15): > 100 µM
- GI50 (RPMI-8226): > 100 µM (inactive)
- GI50 (NCI-H23): > 100 µM (inactive)
- GI50 (COLO 205): > 100 µM (inactive)
- GI50 (OVCAR-5): > 100 µM (inactive)
- GI50 (DU-145): > 100 µM (inactive)
- GI50 (SNB-19): > 100 µM (inactive)
- GI50 (SW-620): > 100 µM (inactive)
- GI50 (K562): > 100 µM (inactive)
- GI50 (HOP-92): > 100 µM (inactive)
- GI50 (Hs-578T): > 100 µM (inactive)
- GI50 (SF-295): > 100 µM (inactive)
- GI50 (TK-10): > 100 µM (inactive)
- GI50 (IGROV-1): > 100 µM (inactive)
- GI50 (U-251): > 100 µM (inactive)
- GI50 (EKVX): > 100 µM (inactive)
- GI50 (MDA-N): > 100 µM (inactive)
- GI50 (SK-OV-3): > 100 µM (inactive)
- GI50 (HT-29): > 100 µM (inactive)
- GI50 (M14): > 100 µM (inactive)
- GI50 (UACC-257): > 100 µM (inactive)
- GI50 (SF-539): > 100 µM (inactive)
- GI50 (NCI-H522): > 100 µM (inactive)
- GI50 (Malme-3M): > 100 µM (inactive)
- GI50 (OVCAR-3): > 100 µM (inactive)
- GI50 (MOLT-4): > 100 µM (inactive)

Structure (SMILES): C/C(=N\O)c1ccc2cc(Br)c3ccccc3c2c1
- GI50 (NCI/ADR-RES): 19.9 µM (inactive)
- GI50 (NCI-H460): 16.2 µM (inactive)
- GI50 (A498): 17.7 µM (inactive)
- GI50 (LOX IMVI): 15.6 µM (inactive)
- GI50 (RXF 393): 14.8 µM (inactive)
- GI50 (CCRF-CEM): 17.5 µM (inactive)
- GI50 (OVCAR-8): 24.8 µM (inactive)
- GI50 (MDA-MB-435): 24.2 µM (inactive)
- GI50 (HCT-116): 11.9 µM (inactive)
- GI50 (OVCAR-4): 61.5 µM (inactive)
- GI50 (KM12): 15.6 µM (inactive)
- GI50 (786-0): 15.1 µM (inactive)
- GI50 (SK-MEL-28): 19.3 µM (inactive)
- GI50 (A549): 37 µM (inactive)
- GI50 (HL-60): 20.7 µM (inactive)
- GI50 (BT-549): 27.5 µM (inactive)
- GI50 (T47D): 22.5 µM (inactive)
- GI50 (SR): 24.6 µM (inactive)
- GI50 (HCC 2998): 14.6 µM (inactive)
- GI50 (SK-MEL-2): 15.8 µM (inactive)
- GI50 (MDA-MB-231): 15.3 µM (inactive)
- GI50 (HOP-62): 20.2 µM (inactive)
- GI50 (SF-268): 26.2 µM (inactive)
- GI50 (UACC-62): 17.7 µM (inactive)
- GI50 (SK-MEL-5): 16.8 µM (inactive)
- GI50 (SN12C): 14.8 µM (inactive)
- GI50 (MCF7): 17.2 µM (inactive)
- GI50 (ACHN): 23.6 µM (inactive)
- GI50 (UO-31): 15.7 µM (inactive)
- GI50 (CAKI-1): 25.1 µM (inactive)
- GI50 (HCT-15): 16 µM
- GI50 (RPMI-8226): 17 µM (inactive)
- GI50 (NCI-H23): 20 µM (inactive)
- GI50 (OVCAR-5): 11.5 µM (inactive)
- GI50 (DU-145): 39.4 µM (inactive)
- GI50 (SNB-19): 33.4 µM (inactive)
- GI50 (SW-620): 23.1 µM (inactive)
- GI50 (K562): 46.8 µM (inactive)
- GI50 (HOP-92): 21 µM (inactive)
- GI50 (Hs-578T): 23.9 µM (inactive)
- GI50 (SF-295): 15.6 µM (inactive)
- GI50 (TK-10): 20.3 µM (inactive)
- GI50 (IGROV-1): 28 µM (inactive)
- GI50 (U-251): 14.6 µM (inactive)
- GI50 (EKVX): 19.1 µM (inactive)
- GI50 (MDA-N): 15.7 µM (inactive)
- GI50 (SK-OV-3): 32.3 µM (inactive)
- GI50 (HT-29): 2.89 µM (inactive)
- GI50 (SNB-75): 28.1 µM (inactive)
- GI50 (M14): 18.2 µM (inactive)
- GI50 (UACC-257): 16.9 µM (inactive)
- GI50 (NCI-H522): 15.1 µM (inactive)
- GI50 (Malme-3M): 19.8 µM (inactive)
- GI50 (OVCAR-3): 16.9 µM (inactive)
